Source: patent US20250049789A1, “METHODS OF TREATING ALOPECIA ARAETA” (AbbVie Inc., priority 2023, published 2025)

System: alopecia areata
Assay: Efficacy and safety of upadacitinib in AD patients with concomitant alopecia areata (SALT, AA-IGA)
Type: in vivo, human
Excerpt: According to data reported in the patient clinical report forms by each investigator, all AD patients who were concomitantly suffering from alopecia areata at the baseline visit were identified. Medical records included demographic characteristics such as age, sex, occupation, smoking habits (smoker, former smoker, or non-smoker), AD history and severity, alopecia areata history and severity, prior treatments, atopic and non-atopic comorbidities, serum IgE levels, and concomitant therapies.
Patients were evaluated at baseline, and follow-up visits were scheduled after 4 weeks from baseline, and every 12 weeks thereafter. At baseline and at each follow-up visit, AD severity was assessed by Eczema Area and Severity Index (EASI) together with other tools. To evaluate severity and treatment response of alopecia areata, Severity of Alopecia Tool (SALT) and Alopecia Areata-Investigator Global Assessment (AA-IGA) were performed, as commonly used in daily practice. […] The SALT change throughout the observation period was recorded as the difference between the baseline SALT score and the SALT score value calculated at each follow-up visit (A SALT).
Qualitative and quantitative variables were described as relative frequencies (%), mean and standard deviation (or medians and interquartile ranges [IR], as appropriate), respectively. […] Data are reported and analysed “as observed”. […]

For `CC[C@@H]1CN(C(=O)NCC(F)(F)F)C[C@@H]1c1cnc2cnc3[nH]ccc3n12` [upadacitinib, (3S,4R)-3-ethyl-4-(3H-imidazo[1,2-a]pyrrolo[2,3-e]pyrazin-8-yl)-N-(2,2,2-trifluoroethyl)pyrrolidine-1-carboxamide], the “predicted SALT reduction for each 1-unit increase in the age of alopecia areata onset” value (multivariable regression, independent of baseline SALT and sex) was 2.1 point and the “patients with clinically meaningful hair regrowth (achievement of at least SALT 50 response)” value (upadacitinib 30 mg once daily, after 4 weeks of treatment) was “about 16%”.
